Test [1] has as its system H526, KU812, CMK11-5 and Jurkat cells. Description: Cell proliferation assays of antibody 20507 ADCs, results in words over the cell line panel. The class given is cell-based, human. The following applies: antigen expressing cells versus Jurkat. How it is done: (§1) To measure antigen-dependent cell killing, cell proliferation assays were conducted with Cell-Titer-Glo™ (Promega) five days after different cell types were incubated with various concentrations of ADCs (Riss et al., (2004) Assay Drug Dev Technol. 2:51-62).

In test [2] the test system is MDA-MB-231 clone 16, MDA-MB-231 clone 40, JimT-1 and HCC1954 cells. In words: Cell proliferation assays of anti-Her2 ADCs, results in words over the cell line panel. The class given is cell-based, human. The following applies: Her2 high, medium and low cell lines.
Source text: Cells that naturally express target antigens or cell lines engineered to express target antigens are frequently used to assay the activity and potency of ADCs. For evaluation of the cell killing potency of anti-Her2 antibody ADCs in vitro, two engineered cell lines, MDA-MB-231 clone 16 and clone 40, and two endogenous cell lines, JimT-1 and HCC1954 cells were employed (Clinchy B, Gazdar A, Rabinovsky R, Yefenof E, Gordon B, Vitetta E S. Breast Cancer Res Treat. (2000) 61:217-228). MDA-MB-231 clone 16 cells stably express high copy numbers (˜5×10^5copies/cell) of recombinant human Her2 on the cell surface, while clone 40 expresses human Her2 at low levels (˜5×10^3 copies/cell). HCC1954 cells endogenously express high levels (˜5×10^5 copies/cell) of […] human Her2 in the surface while JimT-1 cells express human Her2 at a medium level (˜8×10^4 copies/cell). NCI-N87 cells express high levels of Her2 while A375 cell express low levels of Her2. An ADC should kill cells in an antigen-dependent manner, meaning that only cells that express sufficient antigen in the cell surface but not cells lacking the antigen will be killed. Therefore cell killing should not be observed MDA-MB-231 clone 40 cells.
as §1
Anti-Her2 ADCs prepared with compounds of the invention and conjugated site-specifically to anti-Her2 Cys mutant antibodies (see Table 5) were assayed in the aforementioned four cell lines to evaluate their cytotoxicity. […] In JimT-1 cells, a cell line with a medium level of Her2 expression, the cell killing activities by the ADCs varied widely. […] Many ADCs killed JimT-1 cell as effectively as HCC1954 and MDAMB231-16 cells (FIG. 1, Table 15). […] The significant differences of cytotoxic potency observed in JimT-1 cell amoung anti-Her2-LC-S159C ADCs have made it possible to rank the potency of the payloads. […] This is in contrast to the in vitro cell killing of both high and low Her2 expressing cell lines by free, unconjugated compounds of the invention (see Example 106,Table 14).

The source of these data is patent US10280139B2, “Cytotoxic peptides and conjugates thereof” (priority 2014, dated 2019).

Take `CC[C@H](C)C([C@@H](CC(=O)N1CCC[C@H]1[C@H](OC)[C@@H](C)C(=O)N[C@@H](Cc1ccccc1)C(=O)NS(=O)(=O)CCCn1cc(CN2C(=O)C=CC2=O)nn1)OC)N(C)C(=O)[C@@H](N=C(N(C)C)N(C)C)C(C)C` (stereo partly drawn) [CL-9, (S)-2-((Bis(dimethylamino)methylene)amino)-1-(((3R,4S,5S)-1-((S)-2-((1R,2R)-3-(((S)-N-1-(3-(4-((2,5-dioxo-2,5-dihydro-1H-pyrrol-1-yl)methyl)-1H-1,2,3-triazol-1-yl)propylsulfonamido)-1-oxo-3-phenylpropan-2-yl)amino)-1-methoxy-2-methyl-3-oxopropyl)pyrrolidin-1-yl)-3-methoxy-5-methyl-1-oxoheptan-4-yl)(methyl)amino)-3-methyl-1-oxobutane]: the “Cell killing activity of antibody 20507 ADCs” value in test [1] is recorded as “active when conjugated to antibody 20507”.
`CC[C@H](C)[C@@H]([C@@H](CC(=O)N1CCC[C@H]1[C@H](OC)[C@@H](C)C(=O)N[C@@H](Cc1ccccc1)C(=O)O)OC)N(C)C(=O)[C@@H](NC(=O)N(CCCNC(=O)CCCCCN1C(=O)C=CC1=O)C(C)C)C(C)C` [NL-30, (S)-2-((2R,3R)-3-((S)-1-((3R,4S,7S)-4-((S)-sec-butyl)-20-(2,5-dioxo-2,5-dihydro-1H-pyrrol-1-yl)-7,10-diisopropyl-3-methoxy-5-methyl-6,9,15-trioxo-5,8,10,14-tetraazaicosan-1-oyl)pyrrolidin-2-yl)-3-methoxy-2-methylpropanamido)-3-phenylpropanoic acid]: in test [2], the “Cell killing activity of anti-Her2 ADCs” value was “active in HCC1954 and MDAMB231-16 cells but not in JimT-1 cells”.
`CC[C@H](C)[C@@H]([C@@H](CC(=O)N1CCC[C@H]1[C@H](OC)[C@@H](C)C(=O)N[C@@H](Cc1ccccc1)P(=O)(O)O)OC)N(C)C(=O)[C@@H](/N=C(\N(C)C)N1CCN(C(=O)CCCn2cc(CN3C(=O)C=CC3=O)nn2)CC1)C(C)C` [NL-21, ((R)-1-((2R,3R)-3-((S)-1-((3R,4S,5S)-4-((S)-2-((E)-((dimethylamino)(4-(4-(4-((2,5-dioxo-2,5-dihydro-1H-pyrrol-1-yl)methyl)-1H-1,2,3-triazol-1-yl)butanoyl)piperazin-1-yl)methylene)amino)-N,3-dimethylbutanamido)-3-methoxy-5-methylheptanoyl)pyrrolidin-2-yl)-3-methoxy-2-methylpropanamido)-2-phenylethyl)phosphonic acid]: in test [2], the “Cell killing activity of anti-Her2 ADCs” value was “active in HCC1954 and MDAMB231-16 cells but not in JimT-1 cells”.
With `CC[C@H](C)[C@@H]([C@@H](CC(=O)N1CCC[C@H]1[C@H](OC)[C@@H](C)C(=O)N[C@H](Cc1ccccc1)C(=O)Nc1ccc(CNC(=O)CCCCCN2C(=O)C=CC2=O)cc1)OC)N(C)C(=O)[C@@H](N=C(N(C)C)N(C)C)C(C)C` [CL-1, N-(4-((R)-2-((2R,3R)-3-((S)-1-((3R,4S,5S)-4-((S)-2-((bis(dimethylamino)methylene)amino)-N,3-dimethylbutanamido)-3-methoxy-5-methylheptanoyl)pyrrolidin-2-yl)-3-methoxy-2-methylpropanamido)-3-phenylpropanamido)benzyl)-6-(2,5-dioxo-2,5-dihydro-1H-pyrrol-1-yl)hexanamide], in test [1], the “Cell killing activity of antibody 20507 ADCs” value is given as “active when conjugated to antibody 20507”.
Regarding `CC[C@H](C)[C@@H]([C@@H](CC(=O)N1CCC[C@H]1[C@H](OC)[C@@H](C)C(=O)N[C@@H](Cc1ccccc1)C(=O)Nc1ccc(CNC(=O)CCCCCN2C(=O)C=CC2=O)cc1)OC)N(C)C(=O)[C@@H](/N=C(\N(C)C)N1CCNCC1)C(C)C` [CL-5, N-(4-((S)-2-((2R,3R)-3-((S)-1-((3R,4S,5S)-4-((S)-2-((E)-((dimethylamino)(piperazin-1-yl)methylene)amino)-N,3-dimethylbutanamido)-3-methoxy-5-methylheptanoyl)pyrrolidin-2-yl)-3-methoxy-2-methylpropanamido)-3-phenylpropanamido)benzyl)-6-(2,5-dioxo-2,5-dihydro-1H-pyrrol-1-yl)hexanamide], in test [2], the “Cell killing activity of anti-Her2 ADCs” value was “active in HCC1954 and MDAMB231-16 cells but not in JimT-1 cells”.
For `CC[C@H](C)[C@@H]([C@@H](CC(=O)N1CCC[C@H]1[C@H](OC)[C@@H](C)C(=O)N[C@@H](Cc1ccccc1)C(=O)O)OC)N(C)C(=O)[C@@H](/N=C(\N(C)C)N1CCN(C(=O)CCCCCN2C(=O)C=CC2=O)CC1)C(C)C` [NL-4, (S)-2-((2R,3R)-3-((S)-1-((3R,4S,5S)-4-((S)-2-((E)-((dimethylamino)(4-(6-(2,5-dioxo-2,5-dihydro-1H-pyrrol-1-yl)hexanoyl)piperazin-1-yl)methylene)amino)-N,3-dimethylbutanamido)-3-methoxy-5-methylheptanoyl)pyrrolidin-2-yl)-3-methoxy-2-methylpropanamido)-3-phenylpropanoic acid], the “Cell killing activity of antibody 20507 ADCs” value in test [1] is reported as “active when conjugated to antibody 20507”.
For `CC[C@H](C)[C@@H]([C@@H](CC(=O)N1CCC[C@H]1[C@H](OC)[C@@H](C)C(=O)N[C@@H](Cc1ccccc1)C(=O)O)OC)N(C)C(=O)[C@@H](Nc1nc(C)cc(C(=O)NCCNC(=O)CCCCCN2C(=O)C=CC2=O)n1)C(C)C` [NL-38, (S)-2-((2R,3R)-3-((S)-1-((3R,4S,5S)-4-((S)-2-((4-((2-(6-(2,5-dioxo-2,5-dihydro-1H-pyrrol-1-yl)hexanamido)ethyl)carbamoyl)-6-methylpyrimidin-2-yl)amino)-N,3-dimethylbutanamido)-3-methoxy-5-methylheptanoyl)pyrrolidin-2-yl)-3-methoxy-2-methylpropanamido)-3-phenylpropanoic acid], the “Cell killing activity of anti-Her2 ADCs” value in test [2] is “active in HCC1954 and MDAMB231-16 cells but not in JimT-1 cells”.
The same measure, in the same setting: next, `CC[C@H](C)[C@@H]([C@@H](CC(=O)N1CCC[C@H]1[C@H](OC)[C@@H](C)C(=O)N[C@@H](Cc1ccccc1)C(=O)NS(=O)(=O)CCCn1cc(CN2C(=O)C=CC2=O)nn1)OC)N(C)C(=O)[C@@H](Nc1nccc(C)n1)C(C)C` [CL-24, (S)-2-((4-methylpyrimidin-2-yl)amino)-1-(((3R,4S,5S)-1-((S)-2-((1R,2R)-3-(((S)-N-1-(3-(4-((2,5-dioxo-2,5-dihydro-1H-pyrrol-1-yl)methyl)-1H-1,2,3-triazol-1-yl)propylsulfonamido)-1-oxo-3-phenylpropan-2-yl)amino)-1-methoxy-2-methyl-3-oxopropyl)pyrrolidin-1-yl)-3-methoxy-5-methyl-1-oxoheptan-4-yl)(methyl)amino)-3-methyl-1-oxobutane]: “active in HCC1954 and MDAMB231-16 cells but not in JimT-1 cells”.
The same measure, in the same setting: next, `CC[C@H](C)[C@@H]([C@@H](CC(=O)N1CCC[C@H]1[C@H](OC)[C@@H](C)C(=O)N[C@@H](Cc1ccccc1)P(=O)(O)O)OC)N(C)C(=O)[C@@H](N=C(N(C)C)N1CCN(C(=O)CCCCCN2C(=O)C=CC2=O)CC1)C(C)C` (stereo in doubt) [NL-19, ((R)-1-((2R,3R)-3-((S)-1-((3R,4S,5S)-4-((S)-2-((E)-((dimethylamino)(4-(6-(2,5-dioxo-2,5-dihydro-1H-pyrrol-1-yl)hexanoyl)piperazin-1-yl)methylene)amino)-N,3-dimethylbutanamido)-3-methoxy-5-methylheptanoyl)pyrrolidin-2-yl)-3-methoxy-2-methylpropanamido)-2-phenylethyl)phosphonic acid]: “active in HCC1954 and MDAMB231-16 cells but not in JimT-1 cells”.
